Assay results as given in patent US7229996B2, “Rifamycin derivatives” (Cumbre Pharmaceuticals Inc., priority 2004, dated 2007).
In brackets after ≈: the same amount, converted by molar mass.

How the values were obtained:
Assay in all cases: MIC by microbroth dilution (NCCLS)
Assay type in all cases: cell-based
[1] = system: Escherichia coli ATCC25922; conditions: E. coli ATCC25922, Rif-S; Cation-Adjusted Mueller-Hinton Broth
[2] = system: Streptococcus pyogenes ATCC19615; conditions: S. pyogenes ATCC19615, Rif-S; THY Broth
[3] = system: Haemophilus influenzae ATCC10211; conditions: H. influenzae ATCC10211, Rif-S; BHI Broth with NAD and hematin
[4] = system: Staphylococcus aureus ATCC29213; conditions: S. aureus ATCC29213, Rif-S; Cation-Adjusted Mueller-Hinton Broth, 37° C.
[5] = system: Enterococcus faecalis ATCC29212; conditions: E. faecalis ATCC29212, Rif-S; BHI Broth
[6] = system: Streptococcus pneumoniae ATCC6303; conditions: S. pneumoniae ATCC6303, Rif-S; THY Broth with catalase, 5% CO2
[7] = system: Staphylococcus epidermidis ATCC 12228; conditions: S. epidermidis ATCC 12228, Rif-S
[8] = system: Staphylococcus aureus ATCC29213 RpoB^H481Y
Procedure: (§1) Representative compounds were assayed for antimicrobial activity as follows: Minimum Inhibitory Concentrations (MICs) were determined by the microbroth dilution method as per NCCLS guidelines (National Committee for Clinical Laboratory Standards 2000), except that all growth incubations were conducted at 37° C. Bacterial cultures were tested in the following bacteriological media: S. aureus, S. epidermidis, and E. coli in Cation-Adjusted Mueller-Hinton Broth, S. pneumoniae in THY Broth supplemented with 1 mg/mL catalase under 5% CO2 atmosphere, S. pyogenes in THY Broth, E. faecalis in BHI Broth, H. influenzae in BHI Broth supplemented with 0.75 μL of 1 mg/mL NAD and 150 μL of 1 mg/ml hematin per 5 mL, and M. smegmatis in Middlebrook Broth plus ADC Enrichment.
(§2) S. aureus ATCC 29213 RpoB^H481Y is a rifampin-resistant strain with a mutation in RNA polymerase. […] S. aureus ATCC 29213 GyrA^S84LParC^S80F is a quinolone-resistant strain with mutations to both DNA gyrase and topoisomerase IV.

[9] = system: Staphylococcus aureus ATCC29213 GyrA^S84L ParC^S80F; conditions: S. aureus ATCC29213 GyrA^S84L ParC^S80F, FQ-R
Procedure: as §1, §2

[10] = system: Staphylococcus aureus ATCC29213 RpoB^D471Y
Procedure: as §1, §2

[11] = Staphylococcus aureus, ATCC29213

For `CO[C@H]1/C=C/O[C@@]2(C)Oc3c(C)c(O)c4c(O)c(c(/C=N/N5CCN(C)CC5)c(O)c4c3C2=O)NC(=O)/C(C)=C\C=C\[C@H](C)[C@H](O)[C@@H](C)[C@@H](O)[C@@H](C)[C@H](OC(C)=O)[C@@H]1C` [Rifampin], the “Antimicrobial activity (MIC range)” value [1] was 16 µg/mL, the “Antimicrobial activity (MIC range)” value [2] was 0.013 µg/mL and the “Antimicrobial activity (MIC range)” value [3] was 0.24 µg/mL. The “Antimicrobial activity (MIC range)” value [4] was 0.008 µg/mL, the “Antimicrobial activity (MIC range)” value [5] was 0.98 µg/mL and the “Antimicrobial activity (MIC range)” value [6] was 0.061 µg/mL. For the same molecule, the “Antimicrobial activity (MIC range)” value [7] was 0.03 µg/mL, the “Antimicrobial activity (MIC range)” value ([8]; S. aureus ATCC29213 RpoB^H481Y, Rif-R) was over 64 µg/mL and the MIC [8, 11] was over 64 µg/mL. For the same molecule, the “Antimicrobial activity (MIC range)” value [9] was 0.008 µg/mL, the “Antimicrobial activity (MIC range)” value ([10]; S. aureus ATCC29213 RpoB^D471Y, Rif-R) was 8 µg/mL and the MIC [10, 11] was 8 µg/mL (≈ 9.72 µM).
